Laboratory results as given in patent publication US20250381206A1, “INVARIANT NATURAL KILLER T-CELL ACTIVATORS” (Deciduous Therapeutics, Inc., priority 2022, published 2025).

Tests used:
[1] = test system: C57BL/6J mice; assay: In vivo IFNγ activation and iNKT cell expansion in C57BL/6J mice; design: species or system mouse; details: 2 μg I.P.; for Naïve Mouse In Vivo IFNγ: average serum IFNγ by ELISA, twenty hours post-injection, eight weeks old C57BL/6J mice; for Naïve Mouse In Vivo CD3 + iNKT + cells (Fold increase over veh control): iNKT cells within splenocytes by flow cytometry, four days post-injection, C57BL/6J mice
Description: Any of the compounds provided herein may be used in this example, including the exemplary compounds of Tables 1 and 2. To determine the expansion induced by the compounds described herein, test compounds were injected into C57BL/6J mice. Serum IFNγ levels and the expansion of iNKT cells within splenocytes was measured 4 days post-IP injection.
Eight weeks old C57BL/6J mice were injected (I.P.) with 2 μg of test compounds. The test compounds were either dissolved in DMSO at a 5 mg/mL stock solution, or formulated into liposomes through thin-film rehydration, then extrusion through 200 nm filters. Liposome-based formulations were constructed using soy phosphatidylcholine, cholesterol, and test compound in a 2:1:0.15 ratio. Twenty hours post-injection, blood was collected from the tail to measure the level of serum IFNγ using an ELISA kit from Biolegend. Four days post-injection, the mice were sacrificed and the splenocytes were isolated. The percentage of iNKT cells within the spleens was measured using flow cytometry, selecting for live cells and mouse CD1d-α-GalCer tetramer+ cells.
In response to injection of several exemplary compounds, the average serum IFNγ collected and fold change of cells are shown in Table B4 below.

[2] = molecular target: T1, human iTCR (Homo sapiens, UniProt P15813); assay: In vitro activation of human iTCR through a Jurkat reporter cell line (JiNKT, GFP under NFKB promoter) co-cultured with compound-loaded BWSTIM cells; format: cell-based; details: percentage of JiNKT cells expressing high levels of GFP by flow cytometry; BWSTIM loaded 4 hours, co-cultured 18 to 24 hours
T1 sequence (P15813 1-335): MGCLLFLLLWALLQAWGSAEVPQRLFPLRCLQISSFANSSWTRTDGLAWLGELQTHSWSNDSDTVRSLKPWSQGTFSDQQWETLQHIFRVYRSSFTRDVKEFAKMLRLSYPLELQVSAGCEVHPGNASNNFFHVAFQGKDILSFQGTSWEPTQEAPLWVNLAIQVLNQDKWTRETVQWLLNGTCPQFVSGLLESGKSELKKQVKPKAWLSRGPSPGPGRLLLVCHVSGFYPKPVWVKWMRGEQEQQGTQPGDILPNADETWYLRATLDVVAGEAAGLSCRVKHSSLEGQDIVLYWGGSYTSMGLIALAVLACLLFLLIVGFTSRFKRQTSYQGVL
Description: To determine the human iTCR activation potential induced by the compounds described herein, a Jurkat cell line (JiNKT) was transfected with the human iTCR, and GFP under the NFKB promoter (cell line licensed from the Medical University of Vienna). A BWS147 cell line (BWSTIM) was also transfected with CD80 and CD1d to act as the antigen-presenting cell.
Any of the compounds provided herein may be used in this example, including the exemplary compounds of Tables 1 and 2. Test compounds were dissolved in DMSO at a 5 mg/mL stock solution. BWSTIM cells were loaded with test compounds at varying concentrations for 4 hours at 37° C. at a concentration of 20k cells/well in 200 μL of media in a u-bottom 96 well dish. BWSTIM cells were washed 2× with media, then incubated with JiNKT cells at a concentration of 80k cells/well in a u-bottom 96 well dish. Cells were co-cultured for 18 to 24 hours. The percentage of cells expressing high levels of GFP was measured through flow cytometry (after gating out the mCD45+ BWSTIM cells).

Compound	EC50 [2]	Naïve Mouse In Vivo IFNγ [1]	Naïve Mouse In Vivo CD3 + iNKT + cells (Fold increase over veh control) [1]
CCCCCCCCCCCCCCC[C@@H](O)[C@H](CO[C@H]1O[C@H](CO)[C@H](O)[C@H](O)[C@H]1O)NC(=O)CCCCCCCCCCCCCCCCCCCCCCCC12CC(F)(C1)C2 [Compound I-2, 24-(3-fluorobicyclo[1.1.1]pentan-1-yl)-N-((2S,3R)-3-hydroxy-1-(((2S,3R,4S,5R,6R)-3,4,5-trihydroxy-6-(hydroxymethyl)tetrahydro-2H-pyran-2-yl)oxy)octadecan-2-yl)tetracosanamide]	1780 nM	8128 ± 1209 pg/mL	2.21 ± 0.38 Fold increase over veh control
CCCCCCCCCCCCCC[C@@H](O)[C@@H](O)[C@H](CC[C@H]1O[C@H](CO)[C@H](O)[C@H](O)[C@H]1O)NC(=O)CCCCCCCCCCCCCCCCCCCCCCCC12CC(F)(C1)C2 [Compound I-7, N-((3S,4S,5R)-4,5-dihydroxy-1-((2R,3R,4R,5R,6R)-3,4,5-trihydroxy-6-(hydroxymethyl)tetrahydro-2H-pyran-2-yl)nonadecan-3-yl)-24-(3-fluorobicyclo[1.1.1]pentan-1-yl)tetracosanamide]	1180 nM	–	–

The next compounds have a lower EC50 [2] than those just listed; values first:

EC50 [2]	Compound	Naïve Mouse In Vivo IFNγ [1]	Naïve Mouse In Vivo CD3 + iNKT + cells (Fold increase over veh control) [1]
621 nM	CCCCCCCCCCCCCCC[C@@H](O)[C@H](CC[C@H]1O[C@H](COC(=O)CCc2ccccc2)[C@H](O)[C@H](O)[C@H]1O)NC(=O)CCCCCCCCCCCCCCCCCCCCCCCC12CC(F)(C1)C2 [Compound I-4, ((2R,3R,4R,5R,6R)-6-((3S,4R)-3-(24-(3-fluorobicyclo[1.1.1]pentan-1-yl)tetracosanamido)-4-hydroxynonadecyl)-3,4,5-trihydroxytetrahydro-2H-pyran-2-yl)methyl 3-phenylpropanoate]	28208 ± 4723 pg/mL	4.09 ± 0.78 Fold increase over veh control
908 nM	CCCCCCCCCCCCCC[C@@H](O)[C@@H](O)[C@H](CO[C@H]1O[C@H](COC(=O)CCc2ccccc2)[C@H](O)[C@H](O)[C@H]1O)NC(=O)CCCCCCCCCCCCCCCCCCCCCCCC12CC(F)(C1)C2 [Compound I-3, ((2R,3R,4S,5R,6S)-6-(((2S,3S,4R)-2-(24-(3-fluorobicyclo[1.1.1]pentan-1-yl)tetracosanamido)-3,4-dihydroxyoctadecyl)oxy)-3,4,5-trihydroxytetrahydro-2H-pyran-2-yl)methyl 3-phenylpropanoate]	8506 ± 790 pg/mL	1.12 ± 0.19 Fold increase over veh control
797 nM	CCCCCCCCCCCCCCC[C@@H](O)[C@H](CO[C@H]1O[C@H](COC(=O)CCc2ccccc2)[C@H](O)[C@H](O)[C@H]1O)NC(=O)CCCCCCCCCCCCCCCCCCCCCCCC1CCS(=O)(=O)CC1 [Compound I-6, ((2R,3R,4S,5R,6S)-6-(((2S,3R)-2-(24-(1,1-dioxidotetrahydro-2H-thiopyran-4-yl)tetracosanamido)-3-hydroxyoctadecyl)oxy)-3,4,5-trihydroxytetrahydro-2H-pyran-2-yl)methyl 3-phenylpropanoate]	43930 ± 43396 pg/mL	1.89 ± 0.44 Fold increase over veh control
